Source: patent US11078216B2, “Bisaryl amides as NRF2 activators” (GLAXOSMITHKLINE INTELLECTUAL PROPERTY DEVELOPMENT LIMITED, priority 2016, dated 2021)

System: NRF2 (NQO1 activity as marker for NRF2 activation), BEAS-2B cells
Experiment: BEAS-2B NQO1 MTT Assay
Assay type: cell-based
Conditions: Homo sapiens, EC50 of NQO1 specific activity induction, 48 hours incubation, read-out: EC50
How it was run: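 As a marker of NRF2 activation, NQO1 specific activity was read from the rate of absorbance change at 570 nm in MTT cocktail over 30 minutes. Lysates came from BEAS-2B cells treated for 48 hours at 37° C, and EC50 was derived by 3-parameter fitting.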

SMILES | EC50 [nM]
Cc1ccc([C@@H](c2ccc3c(nnn3C)c2C)C(C)(C)C(=O)Nc2cccnc2)cc1Cn1ccnc1CC1CCCCCC1 [Example 173, (S)-3-(3-((2-(cycloheptylmethyl)-1H-imidazol-1-yl)methyl)-4-methylphenyl)-3-(1,4-dimethyl-1H-benzo[d][1,2,3]triazol-5-yl)-2,2-dimethyl-N-(pyridin-3-yl)propanamide] | 10 to 100
CCn1nnc2c(C)c([C@@H](CC(=O)Nc3cccnc3)c3ccc(C)c(CN4C[C@@H](C)Cc5ccc(C(F)(F)F)cc5S4(=O)=O)c3)ccc21 [Example 174, (S)-3-(1-ethyl-4-methyl-1H-benzo[d][1,2,3]triazol-5-yl)-3-(4-methyl-3-(((S)-4-methyl-1,1-dioxido-8-(trifluoromethyl)-4,5-dihydrobenzo[f][1,2]thiazepin-2(3H)-yl)methyl)phenyl)-N-(pyridin-3-yl)propanamide] | 10 to 100
CCC1CCN(Cc2nccn2Cc2cc([C@@H](c3ccc4c(nnn4C)c3C)C(C)(C)C(=O)Nc3cccnc3)ccc2Cl)CC1 [Example 175, (S)-3-(4-chloro-3-((2-((4-ethylpiperidin-1-yl)methyl)-1H-imidazol-1-yl)methyl)phenyl)-3-(1,4-dimethyl-1H-benzo[d][1,2,3]triazol-5-yl)-2,2-dimethyl-N-(pyridin-3-yl)propanamide] | 100 to 1000
CC[C@@H]1CN(Cc2cc([C@@H](c3ccc4c(nnn4CC)c3C)[C@@H](C)C(=O)Nc3cccnc3)ccc2C)S(=O)(=O)c2cccnc2O1 [Example 176] | 1 to 10
CCn1nnc2c(C)c([C@H](c3ccc(C)c(CN4C[C@@H](C)Cc5cc(C(F)(F)F)ccc5S4(=O)=O)c3)[C@@H](C)C(=O)Nc3cccnc3)ccc21 [Example 177, (2R,3S)-3-(1-ethyl-4-methyl-1H-benzo[d][1,2,3]triazol-5-yl)-2-methyl-3-(4-methyl-3-(((S)-4-methyl-1,1-dioxido-7-(trifluoromethyl)-4,5-dihydrobenzo[f][1,2]thiazepin-2(3H)-yl)methyl)phenyl)-N-(pyridin-3-yl)propanamide] | 1 to 10
CCn1nnc2c(C)c([C@@H](CC(=O)Nc3cccnc3)c3ccc(C)c(CN4C[C@@H](C)Cc5ccc(F)cc5S4(=O)=O)c3)ccc21 [Example 178, (S)-3-(1-ethyl-4-methyl-1H-benzo[d][1,2,3]triazol-5-yl)-3-(3-(((S)-8-fluoro-4-methyl-1,1-dioxido-4,5-dihydrobenzo[f][1,2]thiazepin-2(3H)-yl)methyl)-4-methylphenyl)-N-(pyridin-3-yl)propanamide] | 10 to 100
CCn1nnc2c(C)c([C@H](c3ccc(C)c(CN4C[C@@H](C)Cc5ccc(C(F)(F)F)cc5S4(=O)=O)c3)[C@@H](C)C(=O)Nc3cccnc3)ccc21 [Example 179, (2R,3S)-3-(1-ethyl-4-methyl-1H-benzo[d][1,2,3]triazol-5-yl)-2-methyl-3-(4-methyl-3-(((S)-4-methyl-1,1-dioxido-8-(trifluoromethyl)-4,5-dihydrobenzo[f][1,2]thiazepin-2(3H)-yl)methyl)phenyl)-N-(pyridin-3-yl)propanamide] | 1 to 10
CC[C@H]1Cc2ccc(C(F)(F)F)cc2S(=O)(=O)N(Cc2cc([C@@H](c3ccc4c(nnn4CC)c3C)[C@@H](C)C(=O)Nc3cccnc3)ccc2C)C1 [Example 180, (2R,3S)-3-(3-(((S)-4-ethyl-1,1-dioxido-8-(trifluoromethyl)-4,5-dihydrobenzo[f][1,2]thiazepin-2(3H)-yl)methyl)-4-methylphenyl)-3-(1-ethyl-4-methyl-1H-benzo[d][1,2,3]triazol-5-yl)-2-methyl-N-(pyridin-3-yl)propanamide] | 1 to 10
CCn1nnc2c(C)c([C@@H](CC(=O)Nc3cccnc3)c3ccc(C)c(CN4C[C@@H](C)Cc5ccc(C(F)(F)F)cc5S4(=O)=O)c3)cc(OC)c21 [Example 181, (S)-3-(1-ethyl-7-methoxy-4-methyl-1H-benzo[d][1,2,3]triazol-5-yl)-3-(4-methyl-3-(((S)-4-methyl-1,1-dioxido-8-(trifluoromethyl)-4,5-dihydrobenzo[f][1,2]thiazepin-2(3H)-yl)methyl)phenyl)-N-(pyridin-3-yl)propanamide] | 10 to 100
CC[C@@H]1CN(Cc2cc([C@@H](c3ccc4c(nnn4CC)c3C)[C@@H](C)C(N)=O)ccc2C)Cc2ncccc2O1 [Example 182, (2R,3S)-3-(3-(((R)-2-ethyl-2,3-dihydropyrido[2,3-f][1,4]oxazepin-4(5H)-yl)methyl)-4-methylphenyl)-3-(1-ethyl-4-methyl-1H-benzo[d][1,2,3]triazol-5-yl)-2-methylpropanamide] | 100 to 1000
CC[C@H]1Cc2cccc(C(F)(F)F)c2CN(Cc2cc([C@@H](c3ccc4c(nnn4CC)c3C)C(C)(C)C(N)=O)ccc2C)C1 [Example 183, (S)-3-(1-ethyl-4-methyl-1H-benzo[d][1,2,3]triazol-5-yl)-3-(3-(((S)-4-ethyl-9-(trifluoromethyl)-4,5-dihydro-1H-benzo[c]azepin-2(3H)-yl)methyl)-4-methylphenyl)-2,2-dimethylpropanamide] | 100 to 1000
CC[C@@H]1CN(Cc2cc([C@@H](c3ccc4c(nnn4CC)c3C)C(C)(C)C(N)=O)ccc2C)Cc2ncccc2O1 [Example 184, (S)-3-(3-(((R)-2-ethyl-2,3-dihydropyrido[2,3-f][1,4]oxazepin-4(5H)-yl)methyl)-4-methylphenyl)-3-(1-ethyl-4-methyl-1H-benzo[d][1,2,3]triazol-5-yl)-2,2-dimethylpropanamide] | 100 to 1000
CC[C@@H]1CN(Cc2cc([C@@H](CCc3cn(C4CCC4)nn3)C(C)(C)C(N)=O)ccc2Cl)S(=O)(=O)c2ccccc2O1 [Example 185, (R)-3-(4-chloro-3-(((R)-4-ethyl-1,1-dioxido-3,4-dihydro-2H-benzo[b][1,4,5]oxathiazepin-2-yl)methyl)phenyl)-5-(1-cyclobutyl-1H-1,2,3-triazol-4-yl)-2,2-dimethylpentanamide] | 100 to 1000
CC[C@@H]1CN(Cc2cc([C@@H](c3ccc4c(nnn4CC)c3C)C(C)(C)C(=O)Nc3cnc(CO[Si](C)(C)C(C)(C)C)nc3)ccc2C)S(=O)(=O)c2ccccc2O1 [Example 186, (S)—N-(2-(((tert-Butyldimethylsilyl)oxy)methyl)pyrimidin-5-yl)-3-(3-(((R)-4-ethyl-1,1-dioxido-3,4-dihydro-2H-benzo[b][1,4,5]oxathiazepin-2-yl)methyl)-4-methylphenyl)-3-(1-ethyl-4-methyl-1H-benzo[d][1,2,3]triazol-5-yl)-2,2-dimethylpropanamide] | 100 to 1000
CC[C@@H]1CN(Cc2cc([C@@H](c3ccc4c(nnn4CC)c3C)C(C)(C)C(=O)Nc3cnc(C(C)(C)O[Si](C)(C)C(C)(C)C)nc3)ccc2C)S(=O)(=O)c2ccccc2O1 [Example 187, (S)-N-(2-(2-((tert-Butyldimethylsilyl)oxy)propan-2-yl)pyrimidin-5-yl)-3-(3-(((R)-4-ethyl-1,1-dioxido-3,4-dihydro-2H-benzo[b][1,4,5]oxathiazepin-2-yl)methyl)-4-methylphenyl)-3-(1-ethyl-4-methyl-1H-benzo[d][1,2,3]triazol-5-yl)-2,2-dimethylpropanamide] | 1000 to 10000
